According to patent publication US10670605B2, “Cysteine reactive probes and uses thereof” (The Scripps Research Institute, priority 2015, dated 2020):

Key:
Test in all cases: Competitive isoTOP-ABPP in situ (fragment-treated cells)
Format in all cases: cell-based
[1] = target: cysteines in MDA-MB-231 and Ramos cells (Homo sapiens, UniProt Q02252)
[2] = target: T1, cysteines in MDA-MB-231 and Ramos cells (Homo sapiens, UniProt O95229)
T1 sequence (O95229 1-277): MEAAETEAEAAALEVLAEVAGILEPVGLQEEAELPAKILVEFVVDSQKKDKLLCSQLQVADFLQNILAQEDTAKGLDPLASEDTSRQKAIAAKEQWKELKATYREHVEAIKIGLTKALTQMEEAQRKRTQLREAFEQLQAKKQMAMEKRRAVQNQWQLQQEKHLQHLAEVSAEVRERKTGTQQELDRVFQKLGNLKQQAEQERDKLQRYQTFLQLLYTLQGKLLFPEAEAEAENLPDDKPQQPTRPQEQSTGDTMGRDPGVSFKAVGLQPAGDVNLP

[3] = target: T2, cysteines in MDA-MB-231 and Ramos cells (Homo sapiens, UniProt P52597)
T2 sequence (P52597 1-415): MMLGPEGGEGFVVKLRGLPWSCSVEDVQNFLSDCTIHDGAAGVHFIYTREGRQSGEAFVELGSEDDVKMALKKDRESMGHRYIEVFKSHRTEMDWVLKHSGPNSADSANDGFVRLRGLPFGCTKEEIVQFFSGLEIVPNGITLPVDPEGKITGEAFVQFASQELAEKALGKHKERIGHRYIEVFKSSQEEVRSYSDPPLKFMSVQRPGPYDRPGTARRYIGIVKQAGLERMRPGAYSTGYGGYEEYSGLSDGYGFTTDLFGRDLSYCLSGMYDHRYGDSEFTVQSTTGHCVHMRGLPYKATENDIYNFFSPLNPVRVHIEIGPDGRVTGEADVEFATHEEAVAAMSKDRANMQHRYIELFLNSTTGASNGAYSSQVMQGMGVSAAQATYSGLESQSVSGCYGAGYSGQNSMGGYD

[4] = target: T3, cysteines in MDA-MB-231 and Ramos cells (Homo sapiens, UniProt P46734)
T3 sequence (P46734 1-347): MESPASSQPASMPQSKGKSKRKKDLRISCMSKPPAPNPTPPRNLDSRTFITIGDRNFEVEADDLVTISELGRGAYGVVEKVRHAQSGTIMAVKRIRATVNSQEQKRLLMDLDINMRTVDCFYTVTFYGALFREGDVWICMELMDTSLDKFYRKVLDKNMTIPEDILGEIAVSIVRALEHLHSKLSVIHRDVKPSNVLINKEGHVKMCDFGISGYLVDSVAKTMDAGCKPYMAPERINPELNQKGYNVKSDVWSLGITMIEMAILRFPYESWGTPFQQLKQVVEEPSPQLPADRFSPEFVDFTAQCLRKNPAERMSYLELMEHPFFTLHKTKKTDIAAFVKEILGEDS

[5] = target: T4, cysteines in MDA-MB-231 and Ramos cells (Homo sapiens, UniProt Q9ULW0)
T4 sequence (Q9ULW0 1-747): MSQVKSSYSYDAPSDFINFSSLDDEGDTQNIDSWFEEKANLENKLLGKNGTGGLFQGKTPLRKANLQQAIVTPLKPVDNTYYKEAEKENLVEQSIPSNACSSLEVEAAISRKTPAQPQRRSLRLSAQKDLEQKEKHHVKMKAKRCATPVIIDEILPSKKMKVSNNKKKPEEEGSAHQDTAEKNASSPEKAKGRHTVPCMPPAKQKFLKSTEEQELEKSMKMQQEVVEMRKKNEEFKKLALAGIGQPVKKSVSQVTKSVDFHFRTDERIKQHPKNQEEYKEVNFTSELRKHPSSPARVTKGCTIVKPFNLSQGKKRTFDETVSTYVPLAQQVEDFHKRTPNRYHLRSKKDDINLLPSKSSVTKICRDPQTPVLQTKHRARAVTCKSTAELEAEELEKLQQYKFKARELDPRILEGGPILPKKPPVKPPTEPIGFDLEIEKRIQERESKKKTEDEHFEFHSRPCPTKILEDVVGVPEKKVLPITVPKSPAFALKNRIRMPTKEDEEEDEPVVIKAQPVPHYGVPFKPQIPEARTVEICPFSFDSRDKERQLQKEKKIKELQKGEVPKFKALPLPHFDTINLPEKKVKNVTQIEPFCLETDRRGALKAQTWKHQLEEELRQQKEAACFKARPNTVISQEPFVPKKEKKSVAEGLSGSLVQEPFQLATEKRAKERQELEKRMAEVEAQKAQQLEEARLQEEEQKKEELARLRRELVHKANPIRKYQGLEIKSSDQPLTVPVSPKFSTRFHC

[6] = target: T5, cysteines in MDA-MB-231 and Ramos cells (Homo sapiens, UniProt Q9NVC6)
T5 sequence (Q9NVC6 1-651): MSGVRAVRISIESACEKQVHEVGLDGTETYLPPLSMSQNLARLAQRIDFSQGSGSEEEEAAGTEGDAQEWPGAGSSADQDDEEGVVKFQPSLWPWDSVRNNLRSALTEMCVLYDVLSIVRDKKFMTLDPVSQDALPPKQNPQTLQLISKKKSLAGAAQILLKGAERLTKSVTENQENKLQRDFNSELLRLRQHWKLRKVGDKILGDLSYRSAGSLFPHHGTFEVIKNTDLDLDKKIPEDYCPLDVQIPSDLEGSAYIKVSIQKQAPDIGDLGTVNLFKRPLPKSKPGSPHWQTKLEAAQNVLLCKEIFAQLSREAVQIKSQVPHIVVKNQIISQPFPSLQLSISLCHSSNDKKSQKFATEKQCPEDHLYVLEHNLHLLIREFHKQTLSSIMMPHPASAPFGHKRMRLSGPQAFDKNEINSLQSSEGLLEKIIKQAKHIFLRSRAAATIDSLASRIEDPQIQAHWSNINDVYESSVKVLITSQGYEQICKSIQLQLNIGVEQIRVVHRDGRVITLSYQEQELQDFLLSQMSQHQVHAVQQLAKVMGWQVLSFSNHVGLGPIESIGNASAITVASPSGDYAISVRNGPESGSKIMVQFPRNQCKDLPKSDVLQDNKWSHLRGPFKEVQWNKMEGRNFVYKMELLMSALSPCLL

[7] = target: cysteines in MDA-MB-231 and Ramos cells (Homo sapiens, UniProt Q9NUY8)
Sequence of cysteines in MDA-MB-231 and Ramos cells (Homo sapiens, UniProt Q9NUY8) (Q9NUY8 whole entry): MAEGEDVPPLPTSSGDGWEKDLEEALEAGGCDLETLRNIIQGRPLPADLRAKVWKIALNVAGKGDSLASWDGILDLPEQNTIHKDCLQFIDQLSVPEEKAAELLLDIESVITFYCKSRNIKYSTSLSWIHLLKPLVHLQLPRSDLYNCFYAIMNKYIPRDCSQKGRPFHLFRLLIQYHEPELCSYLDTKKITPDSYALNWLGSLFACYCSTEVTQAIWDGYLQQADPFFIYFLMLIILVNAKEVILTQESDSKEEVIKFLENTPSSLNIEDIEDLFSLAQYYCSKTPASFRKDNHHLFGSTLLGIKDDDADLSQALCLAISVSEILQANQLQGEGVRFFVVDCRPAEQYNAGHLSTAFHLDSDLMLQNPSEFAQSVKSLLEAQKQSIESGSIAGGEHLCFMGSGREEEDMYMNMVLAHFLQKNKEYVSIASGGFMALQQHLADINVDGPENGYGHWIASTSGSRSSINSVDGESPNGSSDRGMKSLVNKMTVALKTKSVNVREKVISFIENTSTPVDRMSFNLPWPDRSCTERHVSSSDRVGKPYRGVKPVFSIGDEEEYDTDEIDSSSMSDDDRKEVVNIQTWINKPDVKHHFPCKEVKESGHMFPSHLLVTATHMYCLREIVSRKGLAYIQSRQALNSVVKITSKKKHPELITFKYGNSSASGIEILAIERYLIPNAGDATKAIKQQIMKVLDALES

Sequence of cysteines in MDA-MB-231 and Ramos cells (Homo sapiens, UniProt Q02252) (Q02252 34-535): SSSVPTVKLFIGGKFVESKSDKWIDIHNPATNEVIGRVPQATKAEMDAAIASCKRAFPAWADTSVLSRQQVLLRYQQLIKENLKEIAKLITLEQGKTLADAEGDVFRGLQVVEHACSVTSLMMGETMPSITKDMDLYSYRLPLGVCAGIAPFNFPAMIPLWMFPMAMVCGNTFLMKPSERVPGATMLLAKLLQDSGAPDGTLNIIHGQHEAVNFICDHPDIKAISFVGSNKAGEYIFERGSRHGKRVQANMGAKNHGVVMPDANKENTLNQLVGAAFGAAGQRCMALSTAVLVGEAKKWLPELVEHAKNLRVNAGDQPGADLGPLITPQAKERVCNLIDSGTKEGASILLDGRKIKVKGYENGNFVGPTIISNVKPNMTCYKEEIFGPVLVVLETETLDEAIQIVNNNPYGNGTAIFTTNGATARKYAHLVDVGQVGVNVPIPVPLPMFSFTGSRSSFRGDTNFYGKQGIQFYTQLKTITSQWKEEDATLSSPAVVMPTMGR

| SMILES | isoTOP-ABPP ratio Q02252_C317 ([1]; 200 μM, insitu, 231) | isoTOP-ABPP ratio O95229_C54 ([2]; 200 μM, insitu, 231) | isoTOP-ABPP ratio P52597_C267 ([3]; 200 μM, insitu, 231) | isoTOP-ABPP ratio P46734_C207 ([4]; 200 μM, insitu, 231) | isoTOP-ABPP ratio Q9ULW0_C536 ([5]; 200 μM, insitu, 231) | isoTOP-ABPP ratio Q9NVC6_C649 ([6]; 200 μM, insitu, 231) | isoTOP-ABPP ratio Q9NUY8_C283 ([7]; 200 μM, insitu, 231) | further results |
| --- | --- | --- | --- | --- | --- | --- | --- | --- |
| COc1ccc2c(c1)CCCN2C(=O)CCl [compound 2] | – | – | – | – | – | – | – | isoTOP-ABPP reactivity Q02252_C317 ALDH6A1 ([1]; 200 μM, insitu, 231): 10.3; isoTOP-ABPP reactivity O95229_C54 ZWINT ([2]; 200 μM, insitu, 231): 3.4; isoTOP-ABPP reactivity P52597_C267 HNRNPF ([3]; 200 μM, insitu, 231): 4.2; isoTOP-ABPP reactivity P46734_C207 MAP2K3 ([4]; 200 μM, insitu, 231): 0.8; isoTOP-ABPP reactivity Q9ULW0_C536 TPX2 ([5]; 200 μM, insitu, 231): 20.0; isoTOP-ABPP reactivity Q9NVC6_C649 MED17 ([6]; 200 μM, insitu, 231): 7.7; isoTOP-ABPP reactivity Q9NUY8_C283 TBC1D23 ([7]; 200 μM, insitu, 231): 4.1 |
| COc1ccc(C2CC(c3cccs3)=NN2C(=O)CCl)cc1 (centres unmarked) [compound 4] | – | – | – | – | – | – | – | isoTOP-ABPP reactivity Q02252_C317 ALDH6A1 ([1]; 100 μM in situ 231): 14.4; isoTOP-ABPP reactivity O95229_C54 ZWINT ([2]; 100 μM in situ 231): 12.4; isoTOP-ABPP reactivity P52597_C267 HNRNPF ([3]; 100 μM in situ 231): 20.0; isoTOP-ABPP reactivity P46734_C207 MAP2K3 ([4]; 100 μM in situ 231): 0.6; isoTOP-ABPP reactivity Q9ULW0_C536 TPX2 ([5]; 100 μM in situ 231): 20.0; isoTOP-ABPP reactivity Q9NVC6_C649 MED17 ([6]; 100 μM in situ 231): 1.7; isoTOP-ABPP reactivity Q9NUY8_C283 TBC1D23 ([7]; 100 μM in situ 231): 2.1 |
| COc1cc2c(cc1OC)CN(C(=O)CCl)CC2 [compound 8] | – | – | – | – | – | – | – | isoTOP-ABPP reactivity O95229_C54 ZWINT ([2]; 200 μM, insitu, 231): 3.1; isoTOP-ABPP reactivity P46734_C207 MAP2K3 ([4]; 200 μM, insitu, 231): 0.8; isoTOP-ABPP reactivity Q9ULW0_C536 TPX2 ([5]; 200 μM, insitu, 231): 20.0; isoTOP-ABPP reactivity Q9NVC6_C649 MED17 ([6]; 200 μM, insitu, 231): 3.2; isoTOP-ABPP reactivity Q9NUY8_C283 TBC1D23 ([7]; 200 μM, insitu, 231): 4.9 |
| O=C(CCl)N1CCC(Cc2ccccc2)CC1 [compound 9] | – | – | – | – | – | – | – | isoTOP-ABPP reactivity O95229_C54 ZWINT ([2]; 200 μM, insitu, 231): 3.7; isoTOP-ABPP reactivity P52597_C267 HNRNPF ([3]; 200 μM, insitu, 231): 3.2; isoTOP-ABPP reactivity P46734_C207 MAP2K3 ([4]; 200 μM, insitu, 231): 3.3; isoTOP-ABPP reactivity Q9ULW0_C536 TPX2 ([5]; 200 μM, insitu, 231): 5.7; isoTOP-ABPP reactivity Q9NVC6_C649 MED17 ([6]; 200 μM, insitu, 231): 2.2; isoTOP-ABPP reactivity Q9NUY8_C283 TBC1D23 ([7]; 200 μM, insitu, 231): 2.1 |
| O=C(CCl)N1CCN(S(=O)(=O)c2ccccc2F)CC1 [compound 10] | 1.5 | 2.3 | 2.5 | 0.8 | 17.6 | 2.3 | 2.0 | isoTOP-ABPP ratio Q02252_C317 ([1]; 200 μM, insitu, ramos): 0.7; isoTOP-ABPP ratio P52597_C267 ([3]; 200 μM, insitu, ramos): 2.4; isoTOP-ABPP ratio Q9NVC6_C649 ([6]; 200 μM, insitu, ramos): 2.1 |
| Cn1cc(S(=O)(=O)N2CCOCC2)cc1C(=O)NC(=O)CCl [compound 11] | – | – | – | – | – | – | – | isoTOP-ABPP ratio Q02252_C317 ([1]; 100 μM in situ 231): 0.9; isoTOP-ABPP ratio O95229_C54 ([2]; 100 μM in situ 231): 1.2; isoTOP-ABPP ratio P52597_C267 ([3]; 100 μM in situ 231): 1.0; isoTOP-ABPP ratio P46734_C207 ([4]; 100 μM in situ 231): 0.6; isoTOP-ABPP ratio Q9ULW0_C536 ([5]; 100 μM in situ 231): 1.4; isoTOP-ABPP ratio Q9NVC6_C649 ([6]; 100 μM in situ 231): 0.8; isoTOP-ABPP ratio Q9NUY8_C283 ([7]; 100 μM in situ 231): 1.1 |
| O=C(CCl)NC(=O)NC12CC3CC(CC(C3)C1)C2 [compound 12] | 3.2 | 20.0 | 6.8 | 0.7 | 20.0 | 4.0 | 2.9 | – |
| O=C(CCl)NCCc1c[nH]c2ccccc12 [compound 13] | 1.3 | 0.8 | 1.2 | 0.8 | 1.5 | 1.1 | 1.1 | isoTOP-ABPP ratio O95229_C54 ([2]; 200 μM, insitu, ramos): 1.4; isoTOP-ABPP ratio P52597_C267 ([3]; 200 μM, insitu, ramos): 1.3; isoTOP-ABPP ratio Q9NVC6_C649 ([6]; 200 μM, insitu, ramos): 1.0; isoTOP-ABPP ratio Q9NUY8_C283 ([7]; 200 μM, insitu, ramos): 1.1 |
| O=C(CCl)NC12CC3CC(CC(C3)C1)C2 [compound 21] | 1.5 | 0.8 | 1.5 | 0.9 | 0.9 | 0.8 | 0.8 | – |
| CC(C)CCOCCNC(=O)CCl [compound 27] | 2.0 | 0.5 | 1.0 | 0.8 | 1.1 | 1.3 | 0.6 | – |
| COc1ccccc1OCCNC(=O)CCl [compound 28] | 1.1 | 0.7 | – | – | 1.0 | 1.1 | 0.7 | – |
| O=C(CCl)N1CCN(CC(=O)N2CCOCC2)CC1 [compound 29] | – | – | – | – | – | – | – | isoTOP-ABPP ratio Q02252_C317 ([1]; 200 μM, insitu, ramos): 1.2; isoTOP-ABPP ratio O95229_C54 ([2]; 200 μM, insitu, ramos): 1.2; isoTOP-ABPP ratio P52597_C267 ([3]; 200 μM, insitu, ramos): 1.2; isoTOP-ABPP ratio Q9ULW0_C536 ([5]; 200 μM, insitu, ramos): 1.8; isoTOP-ABPP ratio Q9NVC6_C649 ([6]; 200 μM, insitu, ramos): 1.6; isoTOP-ABPP ratio Q9NUY8_C283 ([7]; 200 μM, insitu, ramos): 1.3 |
| C=CC(=O)N(Cc1cccnc1)c1cc(C(F)(F)F)cc(C(F)(F)F)c1 [compound 31] | – | – | 1.2 | – | – | 0.8 | 0.6 | isoTOP-ABPP ratio P52597_C267 ([3]; 200 μM, insitu, ramos): 1.3 |
| C=CC(=O)Nc1cc(F)c(N2CCN(C(=O)OC(C)(C)C)CC2)c(F)c1 [compound 38] | 2.4 | – | 1.8 | 1.5 | 1.2 | 1.2 | 1.0 | – |
| Cc1ccc(C=C(C#N)C(=O)NCCN2CCOCC2)cc1 [compound 41] | 0.8 | 0.6 | 0.8 | 0.7 | 1.2 | 0.8 | 0.7 | – |
| CC1CCc2ccccc2N1C(=O)CCl (centres unmarked) [compound 45] | 2.6 | – | 4.1 | 1.5 | 20.0 | 20.0 | 2.7 | – |
| O=C(CCl)Nc1cccc2ncccc12 [compound 51] | – | 1.0 | 1.3 | 0.7 | 1.4 | – | 2.1 | – |
